From ChEMBL document CHEMBL4385605, “Synthesis and Structure-Affinity Relationships of Spirocyclic Benzopyrans with Exocyclic Amino Moiety” (J Med Chem, 2019) come the findings set out here.

Series [1] has as its target T1, Sigma intracellular receptor 2 (Rattus norvegicus, UniProt Q5U3Y7).
T1 sequence (Q5U3Y7 whole entry): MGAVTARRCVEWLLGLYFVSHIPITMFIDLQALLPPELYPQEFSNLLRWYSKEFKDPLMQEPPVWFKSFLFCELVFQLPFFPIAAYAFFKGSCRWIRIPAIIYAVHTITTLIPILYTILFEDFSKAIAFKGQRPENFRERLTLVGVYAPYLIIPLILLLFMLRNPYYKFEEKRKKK
The series can be described thus: Displacement of [3H]-di-o-tolylguanidine from sigma2 receptor in rat liver membranes incubated for 120 mins in the presence of sigma1 receptor ligand (+)-pentazocine by scintillation counting method. The format is cell membranes.

Series [2] is described as follows: Selectivity ratio of Ki for displacement of [3H]DTG from sigma2 receptor in rat liver membranes to Ki for displacement of (+)-[3H]pentazocine from sigma 1 receptor in guinea pig brain cortex membranes. Format: cell membranes. For orientation: In a radioligand displacement assay an active substance lowers the binding of a labelled ligand.
The target in series [3] is Sigma non-opioid intracellular receptor 1 (Homo sapiens, UniProt Q99720). The series can be described thus: Displacement of [3H](+)-pentazocine from sigma 1 receptor in human RPMI8226 cell membranes incubated for 2 hrs under shaking by scintillation counting analysis.
Series [4] addresses Mu-type opioid receptor (Cavia porcellus, UniProt P97266). The series can be described thus: Displacement of [3H]DAMGO from mu opioid receptor in guinea pig brain membranes after 120 mins by scintillation counting analysis. Format: cell membranes.
The target of series [5] is Delta-type opioid receptor (Rattus norvegicus, UniProt P33533). Description: Displacement of [3H]DPDPE from delta opioid receptor in rat membranes after 120 mins by scintillation counting analysis. Format: cell membranes.
The target in series [6] is Kappa-type opioid receptor (Cavia porcellus, UniProt P41144). The series can be described thus: Displacement of [3H]U69,593 from kappa opioid receptor in guinea pig brain membrane after 120 mins by scintillation counting analysis. The format is cell membranes.
Series [7] concerns the target Mu-type opioid receptor (Homo sapiens, UniProt P35372). Description: Binding affinity to human mu opioid receptor by cell based assay.
The species named for another series is Sus scrofa. Description: Displacement of [3H]-(+)-MK-801 from PCP binding site of NMDA receptor in pig brain cortex membranes up to 1 uM after 120 mins by scintillation counting analysis. The format is cell membranes.
In another series the target is Cytochrome P450 3A4 (Homo sapiens, UniProt P08684). The series can be described thus: Inhibition of recombinant human CYP3A4 at 1 uM by fluorescence assay. The format is ADME. To be noted: recombinant enzyme.
The target of the next series is CYP2D6 (Homo sapiens, UniProt P10635). The series can be described thus: Inhibition of recombinant human CYP2D6 at 1 uM by fluorescence assay relative to control. The format is ADME.
Series [8] deals with HepG2. Description: Cytotoxicity against human HepG2 cells at 1 to 100 uM incubated for 20 hrs under serum free condition by MTT assay. The format is cell-based. The settings on record: hepg2, 20 h. For orientation: Tetrazolium dyes change colour on reduction, which living cells bring about.
Series [9] relates to HepG2. The series can be described thus: Cytotoxicity against human HepG2 cells at 1 to 100 uM incubated for 20 hrs under serum free condition by neutral red uptake assay. Format: cell-based. The settings on record: hepg2, 20 h.
Another series concerns the target T2, Cytochrome P450 1A2 (Homo sapiens, UniProt P05177).
T2 sequence (P05177 whole entry): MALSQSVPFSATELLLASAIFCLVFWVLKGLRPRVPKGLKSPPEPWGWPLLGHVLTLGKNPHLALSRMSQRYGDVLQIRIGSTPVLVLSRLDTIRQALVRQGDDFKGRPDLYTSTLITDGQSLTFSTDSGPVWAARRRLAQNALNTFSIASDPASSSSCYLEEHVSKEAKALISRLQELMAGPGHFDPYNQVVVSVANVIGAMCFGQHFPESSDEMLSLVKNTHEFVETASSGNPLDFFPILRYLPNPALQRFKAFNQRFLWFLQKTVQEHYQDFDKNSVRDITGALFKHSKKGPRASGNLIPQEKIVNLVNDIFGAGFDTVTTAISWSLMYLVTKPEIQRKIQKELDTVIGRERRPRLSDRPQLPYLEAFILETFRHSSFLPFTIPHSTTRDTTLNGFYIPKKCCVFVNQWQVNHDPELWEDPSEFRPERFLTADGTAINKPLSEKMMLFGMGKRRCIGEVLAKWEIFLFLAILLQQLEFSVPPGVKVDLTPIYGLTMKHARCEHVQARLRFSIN
Description: Inhibition of recombinant human CYP1A2 at 1 uM by fluorescence assay. The format is ADME. The settings on record: recombinant enzyme.

The target in a further series is Cytochrome P450 2C9 (Homo sapiens, UniProt P11712). The series can be described thus: Inhibition of recombinant human CYP2C9 at 1 uM by fluorescence assay. Format: ADME. To be noted: recombinant enzyme.
In another series the target is Cytochrome P450 2C19 (Homo sapiens, UniProt P33261). The series can be described thus: Inhibition of recombinant human CYP2C19 at 1 uM by fluorescence assay. The format is ADME. The settings on record: recombinant enzyme.
Series [10] is described as follows: Metabolic stability in human liver microsomes assessed as parent compound remaining at 1 uM in the presence of NADPH regenerating system after 60 mins by UPLC/MS analysis. Format: ADME, Microsome. To be noted: read-out: Stability.
Series [11] deals with Sodium-dependent noradrenaline transporter (Homo sapiens) (UniProt P23975). Description: Binding affinity to noradrenaline transporter (unknown origin) at 1 uM.
In series [12] the target is Sodium-dependent dopamine transporter (Homo sapiens) (UniProt Q01959). Description: Binding affinity to dopamine transporter (unknown origin) at 1 uM.
The target in series [13] is T3, Alpha-1A adrenergic receptor (Homo sapiens) (UniProt P35348).
T3 sequence (whole entry): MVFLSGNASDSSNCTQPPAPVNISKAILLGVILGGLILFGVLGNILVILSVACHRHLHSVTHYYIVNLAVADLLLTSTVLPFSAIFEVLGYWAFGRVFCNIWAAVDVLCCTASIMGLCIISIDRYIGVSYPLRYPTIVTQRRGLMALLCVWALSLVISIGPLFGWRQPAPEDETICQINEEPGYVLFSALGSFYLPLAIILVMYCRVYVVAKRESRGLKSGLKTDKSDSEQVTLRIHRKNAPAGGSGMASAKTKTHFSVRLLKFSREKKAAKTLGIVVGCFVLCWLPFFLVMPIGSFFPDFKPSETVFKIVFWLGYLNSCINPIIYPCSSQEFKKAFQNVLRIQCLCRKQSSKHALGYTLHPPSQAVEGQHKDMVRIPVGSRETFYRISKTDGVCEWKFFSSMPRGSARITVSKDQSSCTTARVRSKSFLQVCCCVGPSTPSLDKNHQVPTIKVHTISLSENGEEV
The series can be described thus: Binding affinity to alpha 1a adrenergic receptor (unknown origin) at 1 uM relative to control.

Series [14] concerns the target T4, Alpha-2A adrenergic receptor (Homo sapiens) (UniProt P08913).
T4 sequence (whole entry): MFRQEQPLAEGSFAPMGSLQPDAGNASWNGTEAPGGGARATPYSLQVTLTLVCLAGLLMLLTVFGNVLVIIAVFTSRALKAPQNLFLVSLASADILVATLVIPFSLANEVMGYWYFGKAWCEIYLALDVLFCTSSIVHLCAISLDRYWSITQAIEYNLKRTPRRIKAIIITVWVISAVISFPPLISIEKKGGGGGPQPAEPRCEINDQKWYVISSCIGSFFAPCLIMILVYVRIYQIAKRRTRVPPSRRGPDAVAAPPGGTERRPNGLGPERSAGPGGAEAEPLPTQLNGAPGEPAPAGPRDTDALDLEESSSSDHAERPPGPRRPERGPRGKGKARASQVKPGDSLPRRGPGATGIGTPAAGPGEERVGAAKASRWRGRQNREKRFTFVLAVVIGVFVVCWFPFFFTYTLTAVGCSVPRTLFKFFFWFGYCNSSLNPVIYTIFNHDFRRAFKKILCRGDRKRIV
Description: Binding affinity to alpha 2a adrenergic receptor (unknown origin) at 1 uM relative to control.

Series [15] has as its target T5, 5-hydroxytryptamine receptor 1A (Homo sapiens) (UniProt P08908).
T5 sequence (whole entry): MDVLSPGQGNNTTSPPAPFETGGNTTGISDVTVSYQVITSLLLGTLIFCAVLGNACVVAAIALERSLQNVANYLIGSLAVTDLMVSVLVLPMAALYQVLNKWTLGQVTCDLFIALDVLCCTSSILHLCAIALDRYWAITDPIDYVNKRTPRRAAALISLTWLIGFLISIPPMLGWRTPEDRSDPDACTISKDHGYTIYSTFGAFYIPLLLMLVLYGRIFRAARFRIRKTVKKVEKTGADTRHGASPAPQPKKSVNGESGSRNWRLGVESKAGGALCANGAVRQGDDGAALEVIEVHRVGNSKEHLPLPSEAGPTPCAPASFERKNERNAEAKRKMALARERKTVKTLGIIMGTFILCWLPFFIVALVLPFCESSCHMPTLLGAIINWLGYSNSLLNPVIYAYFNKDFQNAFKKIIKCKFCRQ
The series can be described thus: Binding affinity to 5-HT1AR (unknown origin) at 1 uM relative to control.

Series [16] concerns the target 5-hydroxytryptamine receptor 2B (Homo sapiens) (UniProt P41595). The series can be described thus: Binding affinity to 5-HT2BR (unknown origin) at 1 uM relative to control.
Series [17] has as its target Sodium-dependent serotonin transporter (Homo sapiens) (UniProt P31645). Description: Binding affinity to serotonin transporter (unknown origin) at 1 uM.

The source made the active and inactive calls. The calls are words filed in the database; no cut-off is given here. Bounds are passed on as bounds.

The Ki is a measure of affinity in units of concentration, obtained from inhibition or displacement. Usually inhibition stands for the change of the read-out against control, counted positive when it falls.

Sodium-dependent noradrenaline transporter (Homo sapiens), sequence (P23975 whole entry): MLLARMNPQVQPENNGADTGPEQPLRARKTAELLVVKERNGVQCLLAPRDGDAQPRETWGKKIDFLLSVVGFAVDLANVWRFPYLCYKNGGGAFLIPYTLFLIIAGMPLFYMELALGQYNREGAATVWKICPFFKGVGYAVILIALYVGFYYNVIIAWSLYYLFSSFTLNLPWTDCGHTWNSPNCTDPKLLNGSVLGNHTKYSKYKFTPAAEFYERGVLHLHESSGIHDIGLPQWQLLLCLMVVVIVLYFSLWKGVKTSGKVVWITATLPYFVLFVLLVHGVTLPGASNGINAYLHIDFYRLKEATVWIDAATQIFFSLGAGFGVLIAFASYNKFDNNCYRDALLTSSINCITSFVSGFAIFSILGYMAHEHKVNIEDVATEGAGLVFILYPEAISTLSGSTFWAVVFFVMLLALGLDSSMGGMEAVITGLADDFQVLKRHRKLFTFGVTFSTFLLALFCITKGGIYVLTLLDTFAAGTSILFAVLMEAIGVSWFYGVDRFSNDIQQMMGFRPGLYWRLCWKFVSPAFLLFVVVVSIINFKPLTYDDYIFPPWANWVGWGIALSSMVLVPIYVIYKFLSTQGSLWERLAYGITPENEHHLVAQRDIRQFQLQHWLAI
5-hydroxytryptamine receptor 2B (Homo sapiens), sequence (P41595 whole entry): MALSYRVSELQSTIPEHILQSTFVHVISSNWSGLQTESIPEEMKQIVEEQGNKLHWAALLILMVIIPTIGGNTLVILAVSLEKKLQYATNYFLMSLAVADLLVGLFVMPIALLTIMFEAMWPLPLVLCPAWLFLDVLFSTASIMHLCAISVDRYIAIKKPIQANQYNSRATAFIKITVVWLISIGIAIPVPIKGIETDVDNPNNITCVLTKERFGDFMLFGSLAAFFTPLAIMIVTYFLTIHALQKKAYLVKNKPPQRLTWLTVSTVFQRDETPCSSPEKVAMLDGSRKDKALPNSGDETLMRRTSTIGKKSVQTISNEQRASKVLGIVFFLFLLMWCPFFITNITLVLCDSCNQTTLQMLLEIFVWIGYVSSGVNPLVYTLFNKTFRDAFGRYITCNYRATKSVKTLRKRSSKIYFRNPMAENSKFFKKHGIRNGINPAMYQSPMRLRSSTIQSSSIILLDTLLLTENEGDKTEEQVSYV
CYP2D6, sequence (P10635 whole entry): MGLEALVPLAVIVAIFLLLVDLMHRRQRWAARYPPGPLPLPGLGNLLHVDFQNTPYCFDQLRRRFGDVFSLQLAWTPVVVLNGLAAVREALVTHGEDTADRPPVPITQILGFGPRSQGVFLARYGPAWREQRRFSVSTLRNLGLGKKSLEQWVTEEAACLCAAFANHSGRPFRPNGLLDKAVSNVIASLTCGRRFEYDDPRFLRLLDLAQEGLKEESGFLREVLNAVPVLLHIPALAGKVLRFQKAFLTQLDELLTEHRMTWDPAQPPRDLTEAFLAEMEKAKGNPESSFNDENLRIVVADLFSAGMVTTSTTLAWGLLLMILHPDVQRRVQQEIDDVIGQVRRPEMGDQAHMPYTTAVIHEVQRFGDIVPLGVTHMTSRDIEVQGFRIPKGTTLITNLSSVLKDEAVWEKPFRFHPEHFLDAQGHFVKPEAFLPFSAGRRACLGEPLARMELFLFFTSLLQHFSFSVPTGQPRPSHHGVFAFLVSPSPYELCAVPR
Cytochrome P450 2C19, sequence (P33261 whole entry): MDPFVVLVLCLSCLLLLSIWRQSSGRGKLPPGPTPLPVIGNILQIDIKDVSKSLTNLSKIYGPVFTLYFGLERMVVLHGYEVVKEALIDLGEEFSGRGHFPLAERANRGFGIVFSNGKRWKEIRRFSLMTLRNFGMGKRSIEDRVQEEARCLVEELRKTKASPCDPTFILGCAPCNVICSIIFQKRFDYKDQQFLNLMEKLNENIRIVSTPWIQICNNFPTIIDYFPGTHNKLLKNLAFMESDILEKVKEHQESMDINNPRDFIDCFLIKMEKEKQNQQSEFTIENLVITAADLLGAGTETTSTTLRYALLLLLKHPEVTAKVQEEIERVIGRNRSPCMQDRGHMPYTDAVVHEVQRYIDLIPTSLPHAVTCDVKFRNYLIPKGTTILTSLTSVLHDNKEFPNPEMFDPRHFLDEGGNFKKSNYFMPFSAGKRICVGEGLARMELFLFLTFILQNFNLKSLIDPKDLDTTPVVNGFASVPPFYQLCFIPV
Sodium-dependent serotonin transporter (Homo sapiens), sequence (P31645 whole entry, looked up): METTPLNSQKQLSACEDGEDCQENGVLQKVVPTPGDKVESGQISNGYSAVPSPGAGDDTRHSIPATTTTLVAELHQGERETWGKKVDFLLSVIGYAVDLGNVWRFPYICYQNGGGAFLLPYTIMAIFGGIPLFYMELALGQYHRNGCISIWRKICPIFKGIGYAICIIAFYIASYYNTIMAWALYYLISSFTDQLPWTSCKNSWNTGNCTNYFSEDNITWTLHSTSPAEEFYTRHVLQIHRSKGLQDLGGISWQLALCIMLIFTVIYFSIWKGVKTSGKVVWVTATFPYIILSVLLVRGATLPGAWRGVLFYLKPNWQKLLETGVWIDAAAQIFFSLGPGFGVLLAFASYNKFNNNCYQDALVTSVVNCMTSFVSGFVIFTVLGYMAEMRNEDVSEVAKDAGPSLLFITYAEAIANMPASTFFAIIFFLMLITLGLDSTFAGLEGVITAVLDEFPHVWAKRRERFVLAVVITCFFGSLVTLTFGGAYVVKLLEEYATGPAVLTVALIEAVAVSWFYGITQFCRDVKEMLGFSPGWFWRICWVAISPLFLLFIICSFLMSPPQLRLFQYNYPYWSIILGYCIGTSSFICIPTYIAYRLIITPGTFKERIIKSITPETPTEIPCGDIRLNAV
Sigma non-opioid intracellular receptor 1, sequence (Q99720 whole entry): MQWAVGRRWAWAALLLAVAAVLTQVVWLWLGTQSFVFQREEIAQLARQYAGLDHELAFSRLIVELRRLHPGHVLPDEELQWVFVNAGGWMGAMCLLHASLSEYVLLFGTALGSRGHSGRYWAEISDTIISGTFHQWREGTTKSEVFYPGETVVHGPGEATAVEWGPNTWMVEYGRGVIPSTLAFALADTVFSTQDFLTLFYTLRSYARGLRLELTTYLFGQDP
Mu-type opioid receptor (Cavia porcellus, UniProt P97266), sequence (P97266 whole entry): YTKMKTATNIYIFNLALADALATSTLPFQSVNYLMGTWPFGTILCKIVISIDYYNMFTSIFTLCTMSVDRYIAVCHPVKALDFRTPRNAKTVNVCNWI
Cytochrome P450 3A4, sequence (P08684 whole entry): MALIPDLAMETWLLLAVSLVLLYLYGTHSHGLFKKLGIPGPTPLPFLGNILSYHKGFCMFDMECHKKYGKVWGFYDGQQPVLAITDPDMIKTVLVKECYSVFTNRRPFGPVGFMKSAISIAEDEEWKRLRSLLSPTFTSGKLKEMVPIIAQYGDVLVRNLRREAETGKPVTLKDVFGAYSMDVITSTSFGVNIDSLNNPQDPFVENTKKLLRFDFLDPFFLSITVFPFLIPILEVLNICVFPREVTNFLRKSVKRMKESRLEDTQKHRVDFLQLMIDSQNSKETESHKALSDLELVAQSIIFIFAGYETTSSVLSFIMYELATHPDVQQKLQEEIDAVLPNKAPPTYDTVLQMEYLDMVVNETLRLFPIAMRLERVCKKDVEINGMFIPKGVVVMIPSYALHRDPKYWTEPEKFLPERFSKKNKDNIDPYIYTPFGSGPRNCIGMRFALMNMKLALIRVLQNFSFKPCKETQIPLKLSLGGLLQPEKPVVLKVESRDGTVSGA
Cytochrome P450 2C9, sequence (P11712 whole entry): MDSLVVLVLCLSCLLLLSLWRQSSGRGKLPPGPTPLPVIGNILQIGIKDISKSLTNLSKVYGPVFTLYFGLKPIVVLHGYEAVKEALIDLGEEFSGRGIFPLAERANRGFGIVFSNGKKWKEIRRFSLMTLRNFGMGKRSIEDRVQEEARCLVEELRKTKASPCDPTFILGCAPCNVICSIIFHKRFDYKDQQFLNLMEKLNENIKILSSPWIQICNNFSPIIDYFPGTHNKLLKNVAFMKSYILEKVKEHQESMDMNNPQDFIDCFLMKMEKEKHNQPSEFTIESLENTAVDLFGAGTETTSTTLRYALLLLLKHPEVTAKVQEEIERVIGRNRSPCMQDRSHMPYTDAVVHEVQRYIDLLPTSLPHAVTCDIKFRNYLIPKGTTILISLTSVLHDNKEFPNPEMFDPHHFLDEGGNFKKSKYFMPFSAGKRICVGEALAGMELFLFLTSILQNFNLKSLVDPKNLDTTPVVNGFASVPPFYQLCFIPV
Delta-type opioid receptor, sequence (P33533 whole entry): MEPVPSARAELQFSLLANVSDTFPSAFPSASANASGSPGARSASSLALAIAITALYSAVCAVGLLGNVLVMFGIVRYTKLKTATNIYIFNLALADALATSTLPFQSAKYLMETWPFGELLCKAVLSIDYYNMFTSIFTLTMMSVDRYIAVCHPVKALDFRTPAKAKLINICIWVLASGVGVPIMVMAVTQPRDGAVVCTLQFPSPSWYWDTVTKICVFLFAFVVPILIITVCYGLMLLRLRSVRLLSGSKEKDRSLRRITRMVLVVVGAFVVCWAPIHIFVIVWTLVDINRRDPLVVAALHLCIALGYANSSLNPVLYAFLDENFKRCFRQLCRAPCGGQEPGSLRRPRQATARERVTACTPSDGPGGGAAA
Mu-type opioid receptor (Homo sapiens, UniProt P35372), sequence (P35372 whole entry): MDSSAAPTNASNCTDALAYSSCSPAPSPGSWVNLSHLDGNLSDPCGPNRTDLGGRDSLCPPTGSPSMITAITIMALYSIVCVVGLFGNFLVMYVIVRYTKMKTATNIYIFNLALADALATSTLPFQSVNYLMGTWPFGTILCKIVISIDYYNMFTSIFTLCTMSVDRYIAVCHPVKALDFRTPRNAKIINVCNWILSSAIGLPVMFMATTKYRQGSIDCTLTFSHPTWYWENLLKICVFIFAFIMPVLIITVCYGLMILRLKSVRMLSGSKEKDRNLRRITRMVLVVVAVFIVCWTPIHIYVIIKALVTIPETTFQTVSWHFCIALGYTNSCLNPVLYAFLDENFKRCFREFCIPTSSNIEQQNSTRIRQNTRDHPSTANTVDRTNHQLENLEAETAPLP

With `COC1Cc2ccccc2[C@]2(CC[C@@H](N(C)Cc3ccccc3)CC2)O1` (stereo partly drawn), the Ki in series [1] turned out to be 1440 nM; in series [3], 40 nM; on Mu-type opioid receptor [4] it was 41 nM; in series [5], 371 nM; in series [6], 250 nM; on Mu-type opioid receptor [7] it was 18 nM. The Ratio Ki in series [2] lay within 5 to 10. Also, the outcome (in the series filed under Sus scrofa; in series [11]; in series [12]; in series [13]; in series [14]; in series [15]) was inactive. Moreover, the outcome in series [16] and in series [17] was inactive. Besides, the “inhibition (INH)” value at Cytochrome P450 3A4, at Cytochrome P450 1A2, at Cytochrome P450 2C9 and at Cytochrome P450 2C19 was “Not Active” throughout. The inhibition at 1 µM at CYP2D6 is more than 90%. For the same compound, the Activity entry in the series on HepG2 [8] and with HepG2 [9] was “Non-Toxic” each time. In series [10], the remaining at 1 h, 1 µM was more than 50%.
